Measured values: patent US20250333394A1, “Tiparp Inhibitor Compounds” (AbbVie Inc., priority 2024, published 2025)

Experiments:
TIPARP GST-(TEV) = TIPARP GST-(TEV) (Homo sapiens (Human), UniProt Q7Z3E1); assay: TR-FRET binding assay, TIPARP; conditions: for IC50: TR-FRET, Probe 1, 2 hours incubation; for PARP1/TIPARP IC50 Ratio: ratio of PARP1 GST IC50 to TIPARP GST-(TEV) IC50
From the text: The full-length cDNA encoding the human TIPARP (NP_001171647.1, UniProtKB-Q7Z3E1) of 657 amino acids was the template to generate the expression construct. […] The TIPARP fusion protein includes GST, glutathione S-transferase, a 26 kDa protein whose DNA sequence is frequently integrated into expression vectors for production of recombinant proteins. A […], was cloned into vector pFastBacTM 1 (Thermo Fisher Scientific) with an N-terminal GST tag followed by a TEV protease site to produce the TIPARP fusion protein, TIPARP GST-(TEV). TR-FRET assays were used to measure the binding of compounds to TIPARP and PARP1, and to characterize biochemical selectivity. Compound stock solutions (10 mM) were serially diluted in 3-fold increments in dimethyl sulfoxide (DMSO). Diluted compounds were dispensed (30 nL) into white ProxiPlate-384-well plates (PerkinElmer, Waltham, MA, USA) using an ECHO® 550 acoustic Labcyte dispenser (Beckman-Coulter Life Sciences, Indianapolis, IN, USA) to achieve a final starting concentration of 30 μM to 0.5 nM in the assay. This was followed by addition of 5 μL of 2× protein/probe mix (Table 2) made in assay buffer (Tris-HCl 50 mM pH 8.0; 5 mM MgCl2; 5 μM ZnCl2; 1 mM DTT (dithiothreitol); 0.15% BSA (bovine serum albumin) (w/v); and 0.01% TritonX-100 (w/v)) at final concentrations listed in Table 2. Subsequently, 5 μL of 2× antibody (Tb-labeled anti-GST antibody, Thermo Fisher Scientific, Waltham, MA, USA) in HEPES buffered saline was added to each well at a final concentration of 1 nM. The samples were then incubated for 2 hours under ambient conditions. Fluorescence was measured and TR-FR ET ratios were determined on an EnVision multimode plate reader (PerkinElmer) using a 520 nanometer (nm) excitation wavelength and collecting fluorescence emission at 495 nm. […] [table]

PARP1 GST = PARP1 GST (Homo sapiens (Human), UniProt P09874); assay: TR-FRET binding assay, PARP1; conditions: Probe 2, 2 hours incubation
Protocol: TR-FRET assays were used to measure the binding of compounds to TIPARP and PARP1, and to characterize biochemical selectivity. Compound stock solutions (10 mM) were serially diluted in 3-fold increments in dimethyl sulfoxide (DMSO). Diluted compounds were dispensed (30 nL) into white ProxiPlate-384-well plates (PerkinElmer, Waltham, MA, USA) using an ECHO® 550 acoustic Labcyte dispenser (Beckman-Coulter Life Sciences, Indianapolis, IN, USA) to achieve a final starting concentration of 30 μM to 0.5 nM in the assay. This was followed by addition of 5 μL of 2× protein/probe mix (Table 2) made in assay buffer (Tris-HCl 50 mM pH 8.0; 5 mM MgCl2; 5 μM ZnCl2; 1 mM DTT (dithiothreitol); 0.15% BSA (bovine serum albumin) (w/v); and 0.01% TritonX-100 (w/v)) at final concentrations listed in Table 2. Subsequently, 5 μL of 2× antibody (Tb-labeled anti-GST antibody, Thermo Fisher Scientific, Waltham, MA, USA) in HEPES buffered saline was added to each well at a final concentration of 1 nM. The samples were then incubated for 2 hours under ambient conditions. Fluorescence was measured and TR-FR ET ratios were determined on an EnVision multimode plate reader (PerkinElmer) using a 520 nanometer (nm) excitation wavelength and collecting fluorescence emission at 495 nm.

NCI-H1373 cells = assay: NCI-H1373 CellTiter-Glo cell assay for TIPARP inhibition; type: cell-based, human; conditions: Homo sapiens, NCI-H1373, 144 h; 6 days, 100 nM 10-Cl-BBQ in medium; read-out: NCI-H1373 CTG EC50
Protocol: The NCI-H1373 CellTiter-Glo® assay was used to determine cell numbers after TIPARP inhibition-induced cell cycle arrest, and enabled screening of compounds for cellular TIPARP inhibition potency.
Compound stock solutions (10 mM) were serially diluted in 3-fold increments in dimethyl sulfoxide. Sample aliquots (120 nL) were dispensed into Corning® 384-well Flat Clear Bottom White Polystyrene TC-treated Microplates (Corning Life Sciences, Corning, NY, USA) using an ECHO® 550 acoustic Labcyte dispenser (Beckman-Coulter Life Sciences, Indianapolis, IN, USA) to achieve final concentrations between 30 μM and 0.5 nM in the assay. This was followed by the addition of 40 μL of 1000 NCI-H1373 cells (ATCC®, Manassas, VA, USA) in complete growth medium RPMI 1640 growth medium (Thermo Fisher Scientific, Waltham, MA, USA) supplemented with 20 mg/L L-glutamate, 25 mM HEPES (4-(2-hydroxyethyl)-1-piperazineethanesulfonic acid), 10% (v/v) heat inactivated FBS (fetal bovine serum), 1% (w/v) penicillin-streptomycin, and 100 nM 10-Cl-BBQ (10-chloro-7H-benzimidazo[2,1-a]benz[de]isoquinolin-7-one, (Tocris, Minneapolis, MN, USA). Duplicate cell plates with 40 μL cells/well along with various concentrations of compounds were kept in Nunc™ Square BioAssay Dishes (Thermo Fisher Scientific) at 98% relative humidity in a 5% C02 incubator at 37° C. for 6 days. On day 7, plates were moved to ambient lab conditions for 10 minutes until the temperature equilibrated. Following equilibration, CellTiter-Glo® Luminescent Cell Viability Assay reagent (Promega™, Madison, WI, USA) was added (15 μL) to each well of the plates. After a 20 minutes incubation, luminescence was detected using a ViewLux™ microplate imager (PerkinElmer, Waltham, MA, USA). Data analysis was performed using GraphPad Prism (Dotmatics, Boston, MA, USA).

DLD-1 parent cells = assay: CellTiter-Glo DLD-1 parent cell assay; type: cell-based; conditions: Homo sapiens, 144 h, 6 days, read-out: DLD-1 CTG EC50
From the text: (§1) The DLD-1 BRCA2 (−/−) CellTiter-Glo® assay measured the synthetic lethality of PARP1/2 inhibitors and was used as a surrogate to allow measurement of activity of both PARP1 and PARP2 in cells. If PARP1 and PARP2 are inhibited and are trapped onto chromatin during DNA replication, there is replication fork stalling and accumulation of double strand breaks. In BR CA wild-type cells, the resulting double strand DNA breaks are repaired via homologous recombination. In cells with mutation of BRCA1 or BRCA2, homologous recombination repair of DNA double strand breaks is defective, and cell death occurs after PARP1/2 inhibitor treatment (Lord C J, Ashworth A. PARP inhibitors: synthetic lethality in the clinic. Science. 2017 Mar. 17; 355(6330):1152-1158). Testing compounds in viability assays with the DLD-1-BR CA 2 (−/−) and DLD-1 parent cell enabled assessment on PARP1/2-dependent (cytotoxicity in the BRCA2 (−/−) cells only) vs. non-selective cytotoxicity in both cell lines.
(§2) Compound stock solutions (10 mM) were serially diluted in 3-fold increments in dimethyl sulfoxide (DMSO). Sample aliquots (120 nL) were dispensed into Corning® 384-well Flat Clear Bottom White Polystyrene TC-treated Microplates (Corning Life Sciences, Corning, NY, USA) using an ECHO® 550 acoustic Labcyte dispenser (Beckman-Coulter Life Sciences, Indianapolis, IN, USA) to achieve concentrations between 30 μM and 0.5 nM in the assay. In the assay, 40 μL of 500 DLD-1 parent cells (HORIZON® Therapeutics, Deerfield, IL, USA) or 40 μL of 1200 DLD-1-BRCA2 (−/−) cells (HORIZON Therapeutics) in complete growth medium containing RPMI 1640 growth medium (ThermoFisher Scientific, Waltham, MA, USA) supplemented with 20 mg/L L-glutamate, 25 mM HEPES (4-(2-hydroxyethyl)-1-piperazineethanesulfonic acid), 10% (v/v) heat inactivated FBS (fetal bovine serum), and 1% (w/v) Penicillin-Streptomycin were added.
(§3) Duplicate cell plates with 40 μL cells/well along with various concentrations of compounds were kept in Nunc™ Square BioAssay Dishes (Thermo Fisher Scientific) at 98% relative humidity in a 5% CO2 incubator at 37° C. for 6 days. On day 7, plates were moved to ambient lab conditions for 10 minutes until the temperature equilibrated. Following equilibration, CellTiter-Glo® Luminescent Cell Viability Assay reagent (Promega™, Madison, WI, USA) was added (15 μL) to each well of the plates. After a 20 minutes incubation, luminescence was detected using a ViewLux™ microplate imager (PerkinElmer, Waltham, MA, USA). Data analysis was performed using GraphPad Prism (Dotmatics, Boston, MA, USA).

DLD-1 BRCA2 (−/−) cells = assay: CellTiter-Glo DLD-1 BRCA2 (−/−) cell assay for PARP1/2 inhibition; type: cell-based; conditions: Homo sapiens, 144 h, 6 days, read-out: DLD-1 BRCA2 (−/−) CTG EC50
From the text: as §1, §2, §3

Sequence of PARP1 GST (P09874 whole entry): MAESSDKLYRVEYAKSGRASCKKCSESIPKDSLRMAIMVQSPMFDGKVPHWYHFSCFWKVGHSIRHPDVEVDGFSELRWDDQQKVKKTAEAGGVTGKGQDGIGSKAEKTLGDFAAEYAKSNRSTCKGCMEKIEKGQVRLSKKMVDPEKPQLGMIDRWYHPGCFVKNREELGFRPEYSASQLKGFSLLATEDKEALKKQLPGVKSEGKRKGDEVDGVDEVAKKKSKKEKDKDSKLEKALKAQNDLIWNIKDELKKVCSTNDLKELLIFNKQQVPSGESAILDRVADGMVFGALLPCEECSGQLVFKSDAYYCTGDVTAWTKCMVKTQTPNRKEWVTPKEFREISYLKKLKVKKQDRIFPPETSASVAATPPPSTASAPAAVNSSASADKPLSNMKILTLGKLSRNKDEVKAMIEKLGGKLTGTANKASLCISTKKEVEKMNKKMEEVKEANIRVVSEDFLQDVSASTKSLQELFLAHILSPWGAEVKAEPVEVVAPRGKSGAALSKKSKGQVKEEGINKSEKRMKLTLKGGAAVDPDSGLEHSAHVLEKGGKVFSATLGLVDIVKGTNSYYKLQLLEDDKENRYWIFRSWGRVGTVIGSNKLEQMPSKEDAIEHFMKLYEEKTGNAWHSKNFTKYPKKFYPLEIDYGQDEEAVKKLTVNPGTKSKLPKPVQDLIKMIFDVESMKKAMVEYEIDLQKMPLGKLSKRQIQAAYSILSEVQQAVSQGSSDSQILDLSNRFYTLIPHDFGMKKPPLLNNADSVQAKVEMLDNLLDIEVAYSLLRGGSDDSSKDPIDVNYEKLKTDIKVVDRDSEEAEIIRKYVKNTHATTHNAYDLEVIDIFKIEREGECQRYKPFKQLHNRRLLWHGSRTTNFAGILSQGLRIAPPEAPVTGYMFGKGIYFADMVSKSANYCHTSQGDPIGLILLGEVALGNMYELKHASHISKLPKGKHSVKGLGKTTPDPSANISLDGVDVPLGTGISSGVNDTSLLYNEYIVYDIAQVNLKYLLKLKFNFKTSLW
Sequence of TIPARP GST-(TEV) (Q7Z3E1 441-657): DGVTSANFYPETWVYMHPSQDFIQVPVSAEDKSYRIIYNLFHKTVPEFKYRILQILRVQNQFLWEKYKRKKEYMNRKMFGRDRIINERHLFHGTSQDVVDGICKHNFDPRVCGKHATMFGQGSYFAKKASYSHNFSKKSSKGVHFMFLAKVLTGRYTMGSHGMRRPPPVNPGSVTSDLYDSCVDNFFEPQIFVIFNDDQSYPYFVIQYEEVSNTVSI

SMILES	IC50 (TIPARP GST-(TEV))	PARP1/TIPARP IC50 Ratio (TIPARP GST-(TEV))	IC50 (PARP1 GST)	EC50 (NCI-H1373 cells)	EC50 (DLD-1 parent cells)	EC50 (DLD-1 BRCA2 (−/−) cells)
C[C@@H]1CN(c2ncc(C(F)(F)F)cn2)C[C@H](C)N1C(=O)[C@H]1C[C@@H](c2c[nH]c(=O)c(C(F)(F)F)c2)C1 [Example 2, 5-[(1s,3s)-3-{(2R,6S)-2,6-dimethyl-4-[5-(trifluoromethyl)pyrimidin-2-yl]piperazine-1-carbonyl}cyclobutyl]-3-(trifluoromethyl)pyridin-2(1H)-one]	0.00375 µM	1340	5.02 µM	0.0322 µM	22.1 µM	16.5 µM
C[C@@H]1CN(C(=O)[C@H]2C[C@@H](c3c[nH]c(=O)c(C(F)(F)F)c3)C2)CCN1c1ncc(C(F)(F)F)cn1 [Example 3, 5-[(1S,3s)-3-{(3R)-3-methyl-4-[5-(trifluoromethyl)pyrimidin-2-yl]piperazine-1-carbonyl}cyclobutyl]-3-(trifluoromethyl)pyridin-2(1H)-one]	0.00474 µM	106	0.504 µM	0.00965 µM	> 30 µM	5.03 µM
C[C@@H]1CN(C(=O)[C@H]2C[C@@H](c3c[nH]c(=O)c(C(F)(F)F)c3)C2)C[C@H](C)N1c1ncc(C(F)(F)F)cn1 [Example 4, 5-[(1s,3s)-3-{(3R,5S)-3,5-dimethyl-4-[5-(trifluoromethyl)pyrimidin-2-yl]piperazine-1-carbonyl}cyclobutyl]-3-(trifluoromethyl)pyridin-2(1H)-one]	0.0057 µM	547	3.12 µM	0.0111 µM	23.9 µM	7.17 µM
C[C@@H]1CN(C(=O)[C@H]2C[C@@H](c3c[nH]c(=O)c(C(F)(F)F)c3)C2)C[C@H](C)N1c1ncc(C(C)(C)O)cn1 [Example 5, 5-[(1s,3s)-3-{(3R,5S)-4-[5-(2-hydroxypropan-2-yl)pyrimidin-2-yl]-3,5-dimethylpiperazine-1-carbonyl}cyclobutyl]-3-(trifluoromethyl)pyridin-2(1H)-one]	0.0023 µM	974	2.24 µM	0.0344 µM	> 30 µM	20.5 µM
C[C@H]1CN(c2ncc(C(F)(F)F)cn2)CCN1C(=O)[C@H]1C[C@@H](c2c[nH]c(=O)c(C(F)(F)F)c2)C1 [Example 6, 5-[(1R,3s)-3-{(2S)-2-methyl-4-[5-(trifluoromethyl)pyrimidin-2-yl]piperazine-1-carbonyl}cyclobutyl]-3-(trifluoromethyl)pyridin-2(1H)-one]	0.00343 µM	82.5	0.283 µM	0.0454 µM	14.4 µM	1.13 µM
C[C@@H]1CN(C(=O)[C@H]2C[C@@H](c3c[nH]c(=O)c(C(F)(F)F)c3)C2)CCN1c1ncc(C(C)(C)O)cn1 [Example 7, 5-[(1S,3s)-3-{(3R)-4-[5-(2-hydroxypropan-2-yl)pyrimidin-2-yl]-3-methylpiperazine-1-carbonyl}cyclobutyl]-3-(trifluoromethyl)pyridin-2(1H)-one]	0.00379 µM	417	1.58 µM	0.0717 µM	> 30 µM	17.2 µM
C[C@H]1CN(C(=O)[C@H]2C[C@@H](c3c[nH]c(=O)c(C(F)(F)F)c3)C2)CCN1c1ncc(C(F)(F)F)cn1 [Example 8, 5-[(1R,3s)-3-{(3S)-3-methyl-4-[5-(trifluoromethyl)pyrimidin-2-yl]piperazine-1-carbonyl}cyclobutyl]-3-(trifluoromethyl)pyridin-2(1H)-one]	0.00879 µM	137	1.2 µM	0.0559 µM	> 30 µM	5.73 µM
C[C@@H]1CN(c2ncc(C(C)(C)O)cn2)CCN1C(=O)[C@H]1C[C@@H](c2c[nH]c(=O)c(C(F)(F)F)c2)C1 [Example 9, 5-[(1S,3s)-3-{(2R)-4-[5-(2-hydroxypropan-2-yl)pyrimidin-2-yl]-2-methylpiperazine-1-carbonyl}cyclobutyl]-3-(trifluoromethyl)pyridin-2(1H)-one]	0.00432 µM	1010	4.36 µM	0.0677 µM	> 30 µM	> 30 µM
